In brackets after ≈: the same amount, converted by molar mass.
Legend:
Format in all cases: functional
Aspergillus niger [1] = experiment: Antifungal activity against Aspergillus niger at 50 ug/ml after 72 hrs by agar well diffusion method; conditions: read-out: DIZ
Fusarium oxysporum [2] = experiment: Antifungal activity against Fusarium oxysporum at 500 ug/ml after 72 hrs by agar well diffusion method; conditions: read-out: DIZ
Fusarium oxysporum [3] = experiment: Antifungal activity against Fusarium oxysporum at 300 ug/ml after 72 hrs by agar well diffusion method; conditions: read-out: DIZ
Fusarium oxysporum [4] = experiment: Antifungal activity against Fusarium oxysporum at 200 ug/ml after 72 hrs by agar well diffusion method; conditions: read-out: DIZ
Fusarium oxysporum [5] = experiment: Antifungal activity against Fusarium oxysporum at 100 ug/ml after 72 hrs by agar well diffusion method; conditions: read-out: DIZ
Fusarium oxysporum [6] = experiment: Antifungal activity against Fusarium oxysporum at 50 ug/ml after 72 hrs by agar well diffusion method; conditions: read-out: DIZ
Rhizoctonia solani [7] = experiment: Antifungal activity against Rhizoctonia solani at 500 ug/ml after 72 hrs by agar well diffusion method; conditions: read-out: DIZ
Rhizoctonia solani [8] = experiment: Antifungal activity against Rhizoctonia solani at 300 ug/ml after 72 hrs by agar well diffusion method; conditions: read-out: DIZ
Rhizoctonia solani [9] = experiment: Antifungal activity against Rhizoctonia solani at 200 ug/ml after 72 hrs by agar well diffusion method; conditions: read-out: DIZ
Rhizoctonia solani [10] = experiment: Antifungal activity against Rhizoctonia solani at 100 ug/ml after 72 hrs by agar well diffusion method; conditions: read-out: DIZ
Rhizoctonia solani [11] = experiment: Antifungal activity against Rhizoctonia solani at 50 ug/ml after 72 hrs by agar well diffusion method; conditions: read-out: DIZ
Bacillus subtilis [12] = experiment: Antibacterial activity against Bacillus subtilis at 500 ug/ml after 24 hrs by agar well diffusion method; conditions: read-out: DIZ
Bacillus subtilis [13] = experiment: Antibacterial activity against Bacillus subtilis at 300 ug/ml after 24 hrs by agar well diffusion method; conditions: read-out: DIZ
Bacillus subtilis [14] = experiment: Antibacterial activity against Bacillus subtilis at 200 ug/ml after 24 hrs by agar well diffusion method; conditions: read-out: DIZ
Bacillus subtilis [15] = experiment: Antibacterial activity against Bacillus subtilis at 100 ug/ml after 24 hrs by agar well diffusion method; conditions: read-out: DIZ
Bacillus subtilis [16] = experiment: Antibacterial activity against Bacillus subtilis at 50 ug/ml after 24 hrs by agar well diffusion method; conditions: read-out: DIZ
Staphylococcus aureus [17] = experiment: Antibacterial activity against Staphylococcus aureus ATCC 6538 at 500 ug/ml after 24 hrs by agar well diffusion method; conditions: ATCC 6538, 24 h, read-out: DIZ
Staphylococcus aureus [18] = experiment: Antibacterial activity against Staphylococcus aureus ATCC 6538 at 300 ug/ml after 24 hrs by agar well diffusion method; conditions: ATCC 6538, 24 h, read-out: DIZ
Staphylococcus aureus [19] = experiment: Antibacterial activity against Staphylococcus aureus ATCC 6538 at 200 ug/ml after 24 hrs by agar well diffusion method; conditions: ATCC 6538, 24 h, read-out: DIZ
Staphylococcus aureus [20] = experiment: Antibacterial activity against Staphylococcus aureus ATCC 6538 at 100 ug/ml after 24 hrs by agar well diffusion method; conditions: ATCC 6538, 24 h, read-out: DIZ
Escherichia coli [21] = experiment: Antibacterial activity against Escherichia coli ATCC 8739 at 300 ug/ml after 24 hrs by agar well diffusion method; conditions: ATCC 8739, 24 h, read-out: DIZ
Escherichia coli [22] = experiment: Antibacterial activity against Escherichia coli ATCC 8739 at 200 ug/ml after 24 hrs by agar well diffusion method; conditions: ATCC 8739, 24 h, read-out: DIZ
Escherichia coli [23] = experiment: Antibacterial activity against Escherichia coli ATCC 8739 at 100 ug/ml after 24 hrs by agar well diffusion method; conditions: ATCC 8739, 24 h, read-out: DIZ
Escherichia coli [24] = experiment: Antibacterial activity against Escherichia coli ATCC 8739 at 50 ug/ml after 24 hrs by agar well diffusion method; conditions: ATCC 8739, 24 h, read-out: DIZ
Klebsiella pneumoniae [25] = experiment: Antibacterial activity against Klebsiella pneumoniae at 500 ug/ml after 24 hrs by agar well diffusion method; conditions: read-out: DIZ
Klebsiella pneumoniae [26] = experiment: Antibacterial activity against Klebsiella pneumoniae at 300 ug/ml after 24 hrs by agar well diffusion method; conditions: read-out: DIZ
Klebsiella pneumoniae [27] = experiment: Antibacterial activity against Klebsiella pneumoniae at 200 ug/ml after 24 hrs by agar well diffusion method; conditions: read-out: DIZ
Klebsiella pneumoniae [28] = experiment: Antibacterial activity against Klebsiella pneumoniae at 50 ug/ml after 24 hrs by agar well diffusion method; conditions: read-out: DIZ
Escherichia coli [29] = experiment: Antibacterial activity against Escherichia coli ATCC 8739 at 500 ug/ml after 24 hrs by agar well diffusion method; conditions: ATCC 8739, 24 h, read-out: DIZ
Klebsiella pneumoniae [30] = experiment: Antibacterial activity against Klebsiella pneumoniae at 100 ug/ml after 24 hrs by agar well diffusion method; conditions: read-out: DIZ
Staphylococcus aureus [31] = experiment: Antibacterial activity against Staphylococcus aureus ATCC 6538 at 50 ug/ml after 24 hrs by agar well diffusion method; conditions: ATCC 6538, 24 h, read-out: DIZ
Aspergillus flavus [32] = experiment: Antifungal activity against Aspergillus flavus at 50 ug/ml after 72 hrs by agar well diffusion method; conditions: read-out: DIZ
Aspergillus flavus [33] = experiment: Antifungal activity against Aspergillus flavus at 100 ug/ml after 72 hrs by agar well diffusion method; conditions: read-out: DIZ
Aspergillus flavus [34] = experiment: Antifungal activity against Aspergillus flavus after 72 hrs by agar well diffusion method
Aspergillus niger [35] = experiment: Antifungal activity against Aspergillus niger after 72 hrs by agar well diffusion method
Fusarium oxysporum [36] = experiment: Antifungal activity against Fusarium oxysporum after 72 hrs by agar well diffusion method
Rhizoctonia solani [37] = experiment: Antifungal activity against Rhizoctonia solani after 72 hrs by agar well diffusion method
Bacillus subtilis [38] = experiment: Antibacterial activity against Bacillus subtilis after 24 hrs by agar well diffusion method
Staphylococcus aureus [39] = experiment: Antibacterial activity against Staphylococcus aureus ATCC 6538 after 24 hrs by agar well diffusion method; conditions: ATCC 6538, 24 h
Escherichia coli [40] = experiment: Antibacterial activity against Escherichia coli ATCC 8739 after 24 hrs by agar well diffusion method; conditions: ATCC 8739, 24 h
Klebsiella pneumoniae [41] = experiment: Antibacterial activity against Klebsiella pneumoniae after 24 hrs by agar well diffusion method
Aspergillus flavus [42] = experiment: Antifungal activity against Aspergillus flavus at 500 ug/ml after 72 hrs by agar well diffusion method; conditions: read-out: DIZ
Aspergillus flavus [43] = experiment: Antifungal activity against Aspergillus flavus at 300 ug/ml after 72 hrs by agar well diffusion method; conditions: read-out: DIZ
Aspergillus flavus [44] = experiment: Antifungal activity against Aspergillus flavus at 200 ug/ml after 72 hrs by agar well diffusion method; conditions: read-out: DIZ
Aspergillus niger [45] = experiment: Antifungal activity against Aspergillus niger at 500 ug/ml after 72 hrs by agar well diffusion method; conditions: read-out: DIZ
Aspergillus niger [46] = experiment: Antifungal activity against Aspergillus niger at 300 ug/ml after 72 hrs by agar well diffusion method; conditions: read-out: DIZ
Aspergillus niger [47] = experiment: Antifungal activity against Aspergillus niger at 200 ug/ml after 72 hrs by agar well diffusion method; conditions: read-out: DIZ
Aspergillus niger [48] = experiment: Antifungal activity against Aspergillus niger at 100 ug/ml after 72 hrs by agar well diffusion method; conditions: read-out: DIZ

Compound: CCn1cc(C=C2C(=O)OC(C)(C)OC2=O)c2cc(Br)ccc21
- zone of inhibition at 50 µg/mL (Aspergillus niger [1]): 6 mm
- zone of inhibition at 500 µg/mL (Fusarium oxysporum [2]): 29 mm
- zone of inhibition at 300 µg/mL (Fusarium oxysporum [3]): 21 mm
- zone of inhibition at 200 µg/mL (Fusarium oxysporum [4]): 16 mm
- zone of inhibition at 100 µg/mL (Fusarium oxysporum [5]): 12 mm
- zone of inhibition at 50 µg/mL (Fusarium oxysporum [6]): 7 mm
- zone of inhibition at 500 µg/mL (Rhizoctonia solani [7]): 29 mm
- zone of inhibition at 300 µg/mL (Rhizoctonia solani [8]): 21 mm
- zone of inhibition at 200 µg/mL (Rhizoctonia solani [9]): 16 mm
- zone of inhibition at 100 µg/mL (Rhizoctonia solani [10]): 12 mm
- zone of inhibition at 50 µg/mL (Rhizoctonia solani [11]): 7 mm
- zone of inhibition at 500 µg/mL (Bacillus subtilis [12]): 23 mm
- zone of inhibition at 300 µg/mL (Bacillus subtilis [13]): 15 mm
- zone of inhibition at 200 µg/mL (Bacillus subtilis [14]): 11 mm
- zone of inhibition at 100 µg/mL (Bacillus subtilis [15]): 9.5 mm
- zone of inhibition at 50 µg/mL (Bacillus subtilis [16]): 5 mm
- zone of inhibition at 500 µg/mL (Staphylococcus aureus [17]): 23 mm
- zone of inhibition at 300 µg/mL (Staphylococcus aureus [18]): 15 mm
- zone of inhibition at 200 µg/mL (Staphylococcus aureus [19]): 11 mm
- zone of inhibition at 100 µg/mL (Staphylococcus aureus [20]): 9.5 mm
- zone of inhibition at 300 µg/mL (Escherichia coli [21]): 17 mm
- zone of inhibition at 200 µg/mL (Escherichia coli [22]): 13 mm
- zone of inhibition at 100 µg/mL (Escherichia coli [23]): 10 mm
- zone of inhibition at 50 µg/mL (Escherichia coli [24]): 6 mm
- zone of inhibition at 500 µg/mL (Klebsiella pneumoniae [25]): 30 mm
- zone of inhibition at 300 µg/mL (Klebsiella pneumoniae [26]): 21 mm
- zone of inhibition at 200 µg/mL (Klebsiella pneumoniae [27]): 14 mm
- zone of inhibition at 50 µg/mL (Klebsiella pneumoniae [28]): 8.4 mm
- zone of inhibition at 500 µg/mL (Escherichia coli [29]): 25 mm
- zone of inhibition at 100 µg/mL (Klebsiella pneumoniae [30]): 13.4 mm
- zone of inhibition at 50 µg/mL (Staphylococcus aureus [31]): 5 mm
- zone of inhibition at 50 µg/mL (Aspergillus flavus [32]): 4 mm
- zone of inhibition at 100 µg/mL (Aspergillus flavus [33]): 9 mm
- MIC (Aspergillus flavus [34]): 40 µg/mL (≈ 106 µM)
- MIC (Aspergillus niger [35]): 40 µg/mL (≈ 106 µM)
- MIC (Fusarium oxysporum [36]): 35 µg/mL (≈ 92.5 µM)
- MIC (Rhizoctonia solani [37]): 35 µg/mL (≈ 92.5 µM)
- MIC (Bacillus subtilis [38]): 30 µg/mL (≈ 79.3 µM)
- MIC (Staphylococcus aureus [39]): 25 µg/mL (≈ 66.1 µM)
- MIC (Escherichia coli [40]): 15 µg/mL (≈ 39.7 µM)
- MIC (Klebsiella pneumoniae [41]): 15 µg/mL (≈ 39.7 µM)
- zone of inhibition at 500 µg/mL (Aspergillus flavus [42]): 23 mm
- zone of inhibition at 300 µg/mL (Aspergillus flavus [43]): 15 mm
- zone of inhibition at 200 µg/mL (Aspergillus flavus [44]): 12 mm
- zone of inhibition at 500 µg/mL (Aspergillus niger [45]): 25 mm
- zone of inhibition at 300 µg/mL (Aspergillus niger [46]): 18 mm
- zone of inhibition at 200 µg/mL (Aspergillus niger [47]): 14 mm
- zone of inhibition at 100 µg/mL (Aspergillus niger [48]): 10 mm
